The assay concerns rainbow trout gut cells (RT-gut). Nature of the assay: Uptake and intracellular stability of fluorescently labelled poly IC (fluorescent microscopy). The format is cell-based. The following applies: 1 ug/ml, 20 degree treatment, 4 hours. The procedure: Per Example 7, low molecular weight poly:IC was labelled with a fluorescent dye, then left as “free” poly:IC or coupled with Cat-PhG (0.38) at a 1:1 (w/w) ratio. Free poly:IC or PhG coupled poly:IC was added to RT-gut cells at a concentration of 1 ug/ml and incubated at 4° C. or 20° C. for 4 hours. Cells were imaged via fluorescent microscopy, and average intracellular fluorescence intensity was measured from 5 randomly selected cells.
Low molecular weight poly IC was labelled with the Ulysis AlexaFluor 546 labelling kit (Invitrogen), then left as “free” poly IC or couple with cationic PhG (0.38) at a 1:1 (w/w) ratio. Free poly IC or PhG coupled poly IC was added to RT-gut cells at a concentration of 1 ug/ml and incubated at 4° C. or 20° C. for 4 hours. Cells were imaged via fluorescent microscopy, and average intracellular fluorescence intensity was measured from 5 randomly selected cells.

“polyinosinic:polycytidylic acid [free poly IC]”: the intracellular fluorescence entry is reported as “no fluorescence was detected”.

These data come from patent US20220225639A1, “IMMUNE-STIMULATING COMPOSITIONS FOR AQUACULTURE SPECIES” (MIREXUS BIOTECHNOLOGIES INC., priority 2019, published 2022).
